# Results reported in patent publication US20250127759A1, “METHODS AND DOSING REGIMENS COMPRISING A CDK2 INHIBITOR FOR THE TREATMENT OF CANCER” (PFIZER INC., priority 2021, published 2025).
# Several values for one entry are separate records, joined by “and”; a condition that tells them apart may be missing. Identical values can stand only once. Like-named read-outs stand apart in the source and are kept apart here.
# Assay: Phase 1/2a study, plasma pharmacokinetics of PF-07104091
# Assay type: in vivo, human
# Text: Blood samples will be collected for measurement of plasma concentrations of PF-07104091 as specified in the protocol. Samples will be used to evaluate the PK of PF-07104091. Samples collected for analyses of PF-07104091 plasma concentration may also be used to evaluate safety or efficacy aspects related to concerns arising during or after the study, for metabolite identification and/or evaluation of the bioanalytical method, or for other internal exploratory purposes.
# Plasma PF-07104091 concentrations will be summarized descriptively (n, mean, standard deviation, coefficient of variation, median, minimum, maximum, geometric mean and its associated coefficient of variation) by dose, cycle, day and nominal time. Individual participant plasma PF-07104091 concentration-time data within a dose interval (with exception of the food effect substudy) after Cycle 1 Day 1 and Cycle 1 Day 15 will be analyzed using noncompartmental methods to determine single and multiple dose PK parameters. For participants in the food effect substudy, individual plasma PF-07104091 concentration-time data after Cycle 1 Day 15 and Cycle 1 Day 16 will be analyzed using noncompartmental methods to determine multiple dose PK parameters. For Part 1 of the study, single dose PK parameters to be estimated will include the Cmax, Tmax, and AUClast, and if data permit, t1/2, CL/F, and Vz/F. Multiple dose PK parameters to be estimated will include Cmax,ss, Tmax,ss, AUCT,ss, Cmin,ss, CL/F,ss, and if data permit, V/Fss, t1/2, and Rac. For Part 2 of the study (with exception of the food effect substudy), single dose PK parameters to be estimated will include Cmax, Tmax and AUClast. Multiple dose PK parameters to be estimated will include Cmax,ss, Tmax,ss, AUClast, Cmin,ss, and Rac. The single dose and steady state PK parameters will be summarized descriptively (n, mean, standard deviation, coefficient of variation, median, minimum, maximum, geometric mean and its associated coefficient of variation) by dose level, cycle and day. For participants in the food effect substudy, multiple dose PK parameters to be estimated will include Cmax,ss, AUCT,ss, Tmax,ss, Cmin,ss, CL/Fss, and if data permit, V/Fss and t1/2.
# An ongoing Phase 1/2a, open-label, multicenter, multiple dose study is being conducted to determine the safety, tolerability, PK, PD, and preliminary anti-tumor activity of PF-07104091 as a single agent and in combination with endocrine therapy. PF-07104091 is administered orally twice daily (BID) during 28-day cycles.
# Preliminary concentration-time data of PF-07104091 following single and multiple oral administration at 75 mg BID to 500 mg BID as monotherapy or in combination with endocrine therapy alone or in combination with palbociclib and endocrine therapy were available from 44 participants with advanced solid tumors and HR-positive HER2-negative advanced or metastatic breast cancer. The preliminary concentration-time data were analyzed by noncompartmental approach using actual PK sampling times.
# […] Individual values are listed when the number of participants with available parameters is less than 3.
# [1] = Cycle 1 Day 1, single oral dose, 375 mg BID monotherapy, individual values
# [2] = Cycle 1 Day 15, repeated BID oral, 75 mg BID monotherapy, individual values
structure (smiles),measurement,setting,value
"COCc1cc(C(=O)Nc2cc([C@H]3CC[C@@H](OC(=O)NC(C)C)C3)[nH]n2)n(C)n1 [PF-07104091, (1R,3S)-3-[3-({[3-(methoxymethyl)-1-methyl-1H-pyrazol-5-yl]carbonyl}amino)-1H-pyrazol-5-yl]cyclopentyl propan-2-ylcarbamate]",AUClast,[1],14424 ng·h/mL
same,Cmax,[1],2890 ng/mL
same,Tmax,[1],"4.0, 4.0 h"
same,Rac,"Cycle 1 Day 15, repeated BID oral, 75 mg BID (1B), with palbociclib and fulvestrant, arithmetic mean ± SD",1.2 ± 0.1
same,AUClast,[2],"2321, ng*h/mL"
same,Cmax,[2],"398, ng/mL"
same,Rac,[2],1.4 and 2.7
same,Rac,"Cycle 1 Day 15, repeated BID oral, 150 mg BID monotherapy, arithmetic mean ± SD",1.8 ± 0.2
same,Rac,"Cycle 1 Day 15, repeated BID oral, 225 mg BID monotherapy, arithmetic mean ± SD",1.8 ± 0.7
same,Rac,"Cycle 1 Day 15, repeated BID oral, 300 mg BID monotherapy, arithmetic mean ± SD",1.9 ± 1.1
same,Rac,"Cycle 1 Day 15, repeated BID oral, 500 mg BID monotherapy, individual value, N = 1",1.1
same,accumulation,following repeated BID administration,moderate accumulation
same,half-life,"human, plasma, po, 75 mg BID to 500 mg BID, read-out: average half-life (converted)",~2 h
same,half-life,"human, plasma, po, 75 mg, Cycle 1 Day 1, single oral dose, 75 mg BID (1B), with palbociclib and fulvestrant, arithmetic mean ± SD, read-out: t1/2 (converted)",1.9 ± 0.2 h
same,AUC(0-t),"human, plasma, po, 75 mg, Cycle 1 Day 1, single oral dose, 75 mg BID (1B), with palbociclib and fulvestrant, geometric mean (CV %)",2760 ng·h/mL
same,Cmax,"human, plasma, po, 75 mg, Cycle 1 Day 1, single oral dose, 75 mg BID (1B), with palbociclib and fulvestrant, geometric mean (CV %), read-out: Cmax",694 ng/mL
same,Tmax,"human, plasma, po, 75 mg, Cycle 1 Day 1, single oral dose, 75 mg BID (1B), with palbociclib and fulvestrant, median (range), read-out: Tmax",1.6 h
same,half-life,"human, plasma, po, 75 mg, Cycle 1 Day 1, single oral dose, 75 mg BID (1C), with palbociclib and letrozole, arithmetic mean ± SD, read-out: t1/2 (converted)",1.6 ± 0.5 h
same,AUC(0-t),"human, plasma, po, 75 mg, Cycle 1 Day 1, single oral dose, 75 mg BID (1C), with palbociclib and letrozole, geometric mean (CV %)",2460 ng·h/mL
same,Cmax,"human, plasma, po, 75 mg, Cycle 1 Day 1, single oral dose, 75 mg BID (1C), with palbociclib and letrozole, geometric mean (CV %), read-out: Cmax",648 ng/mL
same,Tmax,"human, plasma, po, 75 mg, Cycle 1 Day 1, single oral dose, 75 mg BID (1C), with palbociclib and letrozole, median (range), read-out: Tmax",0.5 h
same,half-life,"human, plasma, po, 75 mg, Cycle 1 Day 1, single oral dose, 75 mg BID monotherapy, arithmetic mean ± SD, read-out: t1/2 (converted)",2.4 ± 0.7 h
same,AUC(0-t),"human, plasma, po, 75 mg, Cycle 1 Day 1, single oral dose, 75 mg BID monotherapy, geometric mean (CV %)",1750 ng·h/mL
same,Cmax,"human, plasma, po, 75 mg, Cycle 1 Day 1, single oral dose, 75 mg BID monotherapy, geometric mean (CV %), read-out: Cmax",362 ng/mL
same,Tmax,"human, plasma, po, 75 mg, Cycle 1 Day 1, single oral dose, 75 mg BID monotherapy, median (range), read-out: Tmax",2 h
same,half-life,"human, plasma, po, 75 mg, Cycle 1 Day 15, repeated BID oral, 75 mg BID (1B), with palbociclib and fulvestrant, arithmetic mean ± SD, read-out: t1/2 (converted)",3.6 ± 0.9 h
same,AUC(0-t),"human, plasma, po, 75 mg, Cycle 1 Day 15, repeated BID oral, 75 mg BID (1B), with palbociclib and fulvestrant, geometric mean (CV %)",3080 ng·h/mL
same,Cmax,"human, plasma, po, 75 mg, Cycle 1 Day 15, repeated BID oral, 75 mg BID (1B), with palbociclib and fulvestrant, geometric mean (CV %), read-out: Cmax",698 ng/mL
same,Tmax,"human, plasma, po, 75 mg, Cycle 1 Day 15, repeated BID oral, 75 mg BID (1B), with palbociclib and fulvestrant, median (range), read-out: Tmax",1.2 h
same,AUC(0-t),"human, plasma, po, 75 mg, Cycle 1 Day 15, repeated BID oral, 75 mg BID monotherapy, individual values",3580 ng·h/mL
same,Cmax,"human, plasma, po, 75 mg, Cycle 1 Day 15, repeated BID oral, 75 mg BID monotherapy, individual values, read-out: Cmax",714 ng/mL
same,Tmax,"human, plasma, po, 75 mg, Cycle 1 Day 15, repeated BID oral, 75 mg BID monotherapy, individual values, read-out: Tmax",1.1 h
same,AUC(0-t),"human, plasma, po, 150 mg, Cycle 1 Day 1, single oral dose, 150 mg BID monotherapy, geometric mean (CV %)",4480 ng·h/mL
same,Cmax,"human, plasma, po, 150 mg, Cycle 1 Day 1, single oral dose, 150 mg BID monotherapy, geometric mean (CV %), read-out: Cmax",739 ng/mL
same,Tmax,"human, plasma, po, 150 mg, Cycle 1 Day 1, single oral dose, 150 mg BID monotherapy, median (range), read-out: Tmax",2 h
same,half-life,"human, plasma, po, 150 mg, Cycle 1 Day 1, single oral dose, 150 mg BID monotherapy, n = 1, read-out: t1/2 (converted)",2.8 h
same,AUC(0-t),"human, plasma, po, 150 mg, Cycle 1 Day 15, repeated BID oral, 150 mg BID monotherapy, geometric mean (CV %)",8020 ng·h/mL
same,Cmax,"human, plasma, po, 150 mg, Cycle 1 Day 15, repeated BID oral, 150 mg BID monotherapy, geometric mean (CV %), read-out: Cmax",1320 ng/mL
same,Tmax,"human, plasma, po, 150 mg, Cycle 1 Day 15, repeated BID oral, 150 mg BID monotherapy, median (range), read-out: Tmax",2.2 h
same,half-life,"human, plasma, po, 150 mg, Cycle 1 Day 15, repeated BID oral, 150 mg BID monotherapy, n = 1, read-out: t1/2 (converted)",1.9 h
same,half-life,"human, plasma, po, 225 mg, Cycle 1 Day 1, single oral dose, 225 mg BID monotherapy, arithmetic mean ± SD, read-out: t1/2 (converted)",2.2 ± 0.7 h
same,AUC(0-t),"human, plasma, po, 225 mg, Cycle 1 Day 1, single oral dose, 225 mg BID monotherapy, geometric mean (CV %)",6630 ng·h/mL
same,Cmax,"human, plasma, po, 225 mg, Cycle 1 Day 1, single oral dose, 225 mg BID monotherapy, geometric mean (CV %), read-out: Cmax",1390 ng/mL
same,Tmax,"human, plasma, po, 225 mg, Cycle 1 Day 1, single oral dose, 225 mg BID monotherapy, median (range), read-out: Tmax",3.9 h
same,half-life,"human, plasma, po, 225 mg, Cycle 1 Day 15, repeated BID oral, 225 mg BID monotherapy, arithmetic mean ± SD, read-out: t1/2 (converted)",2.6 ± 0.9 h
same,AUC(0-t),"human, plasma, po, 225 mg, Cycle 1 Day 15, repeated BID oral, 225 mg BID monotherapy, geometric mean (CV %)",10700 ng·h/mL
same,Cmax,"human, plasma, po, 225 mg, Cycle 1 Day 15, repeated BID oral, 225 mg BID monotherapy, geometric mean (CV %), read-out: Cmax",2350 ng/mL
same,Tmax,"human, plasma, po, 225 mg, Cycle 1 Day 15, repeated BID oral, 225 mg BID monotherapy, median (range), read-out: Tmax",2 h
same,half-life,"human, plasma, po, 300 mg, Cycle 1 Day 1, single oral dose, 300 mg BID monotherapy, arithmetic mean ± SD, read-out: t1/2 (converted)",2 ± 0.6 h
same,AUC(0-t),"human, plasma, po, 300 mg, Cycle 1 Day 1, single oral dose, 300 mg BID monotherapy, geometric mean (CV %)",9110 ng·h/mL
same,Cmax,"human, plasma, po, 300 mg, Cycle 1 Day 1, single oral dose, 300 mg BID monotherapy, geometric mean (CV %), read-out: Cmax",1820 ng/mL
same,Tmax,"human, plasma, po, 300 mg, Cycle 1 Day 1, single oral dose, 300 mg BID monotherapy, median (range), read-out: Tmax",2 h
same,half-life,"human, plasma, po, 300 mg, Cycle 1 Day 15, repeated BID oral, 300 mg BID monotherapy, arithmetic mean ± SD, read-out: t1/2 (converted)",2.8 ± 0.2 h
same,AUC(0-t),"human, plasma, po, 300 mg, Cycle 1 Day 15, repeated BID oral, 300 mg BID monotherapy, geometric mean (CV %)",12500 ng·h/mL
same,Cmax,"human, plasma, po, 300 mg, Cycle 1 Day 15, repeated BID oral, 300 mg BID monotherapy, geometric mean (CV %), read-out: Cmax",2570 ng/mL
same,Tmax,"human, plasma, po, 300 mg, Cycle 1 Day 15, repeated BID oral, 300 mg BID monotherapy, median (range), read-out: Tmax",2.1 h
same,AUC(0-t),"human, plasma, po, 375 mg, Cycle 1 Day 1, single oral dose, 375 mg BID monotherapy, individual values",11600 ng·h/mL
same,Cmax,"human, plasma, po, 375 mg, Cycle 1 Day 1, single oral dose, 375 mg BID monotherapy, individual values, read-out: Cmax",2520 ng/mL
same,Tmax,"human, plasma, po, 375 mg, Cycle 1 Day 1, single oral dose, 375 mg BID monotherapy, individual values, read-out: Tmax",4 h
same,half-life,"human, plasma, po, 375 mg, Cycle 1 Day 1, single oral dose, 375 mg BID monotherapy, n = 1, read-out: t1/2 (converted)",1.5 h
same,AUC(0-t),"human, plasma, po, 500 mg, Cycle 1 Day 1, single oral dose, 500 mg BID monotherapy, geometric mean (CV %)",15200 ng·h/mL
same,Cmax,"human, plasma, po, 500 mg, Cycle 1 Day 1, single oral dose, 500 mg BID monotherapy, geometric mean (CV %), read-out: Cmax",2980 ng/mL
same,Tmax,"human, plasma, po, 500 mg, Cycle 1 Day 1, single oral dose, 500 mg BID monotherapy, median (range), read-out: Tmax",5.3 h
same,AUC(0-t),"human, plasma, po, 500 mg, Cycle 1 Day 15, repeated BID oral, 500 mg BID monotherapy, individual value, N = 1",21500 ng·h/mL
same,Cmax,"human, plasma, po, 500 mg, Cycle 1 Day 15, repeated BID oral, 500 mg BID monotherapy, individual value, N = 1, read-out: Cmax",4420 ng/mL
same,Tmax,"human, plasma, po, 500 mg, Cycle 1 Day 15, repeated BID oral, 500 mg BID monotherapy, individual value, N = 1, read-out: Tmax",4 h
same,Tmax,"human, plasma, po, oral administration at doses up to 300 mg BID, read-out: median Tmax",0.5 to 4 h
